Data published in US20140010801A1, “Compositions and Methods for Restoring or Rejuvenating Stem/Progenitor Cell Function” (UNIVERSITY OF PITTSBURGH - OF THE COMMONWEALTH SYSTEM OF …, priority 2012, published 2014).

How the values were obtained:
Ercc1^−/− MEFs = test: Reversal of senescence (SA-β-gal+) of Ercc1−/− MEFs; assay type: cell-based, mouse; settings: within 24 hours of treatment
Method: FIG. 19 depicts analysis of the ability of an IKK inhibitor (IKKiVII) to rescue senescence (SA-β-gal+) […] MEFs after 24 hours of treatment.
To determine whether NF-κB is activated by endogenous genotoxic stress, which arises as a consequence of normal metabolism, Ercc1^−/− primary cells and mice were used, which are defective in DNA repair were used. Phosphorylated p65 (p-p65) and IκB were measured in nuclear and cytoplasmic extracts from early passage, congenic Ercc1^−/− and WT primary MEFs by immunoblot, and there was a >2-fold increase in nuclear p-p65 in Ercc1^−/− MEFs compared to WT, which correlated with an increase in the level of phosphorylated IκB (p-IκB) in the cytoplasm. EMSA was used to confirm increased NF-κB binding in nuclear extracts of Ercc1^−/− MEFs, which was abrogated by pretreatment of the samples with an anti-p65 antibody. To determine whether premature senescence of Ercc1^−/− MEFs is NF-κB dependent, the growth of Ercc1^−/−; p65^−/− MEFs was compared to congenic Ercc1−/− MEFs. Ercc1^−/− MEFs have reduced proliferation and increased replicative senescence as measured by SA-β-Gal staining, γ-H2AX foci and p16 expression. […] Furthermore, the Ercc1^−/−; p65^−/− MEFs had reduced ROS compared to Ercc1 cells as determined by staining mitochondria with DiOC6 and superoxide anion with MitoSOX. […]

aged WT MDSPCs = test: Myogenic potential (fusion index) of aged MDSPCs under IKK-β inhibition; assay type: cell-based, mouse; design: dose or concentration left out as unconfirmed; settings: fusion conditions
Description: Reduction of NF-κB enhances the myogenic differentiation potential and resistance to stress in MDSPCs isolated from naturally aged mice. To determine further whether the NF-κB signaling pathway plays a role in driving age-related stem cell dysfunction, whether pharmacologic inhibition of IKK-β would restore the myogenic potential of aged WT MDSPCs was examined. […] MDSPCs were isolated from 30 month old p65^+/− and 24 month old WT mice and compared the myogenic potential of 30 month old p65^+/− MDSPCs in vitro to naturally aged WT MDSPCs. The results confirmed that MDSPCs from p65^+/− aged mice (30 month) were more myogenic than MDSPCs from 24 month old WT mice.

Ercc1^−/Δ mice = test: Chronic XJB-5-131 treatment of Ercc1−/Δ mice; assay type: in vivo, mouse

## O=C(c1ccc(Nc2nccc(-c3cc4ccccc4s3)n2)cc1)N1CCC(N2CCCC2)CC1 [IKKiVII]
Ercc1^−/− MEFs
  senescence of Ercc1^−/− MEFs (>60% of cells SA-βgal+): could be reversed

## NC(=O)Nc1sc(-c2ccc(F)cc2)cc1C(N)=O [IKKβ inhibitor IV]
Aged WT MDSPCs
  fusion index of aged MDSPCs: significantly increased

## CC(C)C[C@@H](/C=C/[C@H](Cc1ccccc1)C(=O)N1CCC[C@H]1C(=O)N[C@H](C(=O)N[C@@H](CCCNC(=O)OCc1ccccc1)C(=O)NC1CC(C)(C)N([O])C(C)(C)C1)C(C)C)NC(=O)OC(C)(C)C [XJB-5-131]
Ercc1^−/Δ mice
  onset of aging-related degenerative changes: delay the onset
